In US20240148749A1 (priority 2021, published 2024):
Entries after “also recorded” stand apart in the source; their conditions may differ.

Legend:
Type in all cases: in vivo, mouse
[1] = tested on: microglial cells; assay: Microglial ROS/RNS, antioxidant defense and bioenergetic/mitochondrial parameters at 21 days
Method: Data shown are mean values (±SD). Gray bars represent MnTBAP-treated mice from either CLP or control groups, and black bars represent placebo-treated mice from either CLP or Control groups. Two-way analyses of variance (ANOVAs) (CLP vs control×MnTBAP vs Placebo) were performed. When a significant interaction was observed, planned comparisons were performed for the CLP/Placebo group against the three other groups. The significance of the planned comparisons is indicated with asterisks (*p<0.05, **p<0.01, ***p<0.001, ****p<0.0001) .
(§1) Data shown are mean values (±SD). Gray bars represent MnTBAP-treated mice from either CLP or control groups, and black bars represent placebo-treated mice from either CLP or Control groups. Two-way analyses of variance (ANOVAs) (CLP vs Control×MnTBAP vs Placebo) were performed. When a significant interaction was observed, planned comparisons were performed for the CLP/Placebo group against the three other groups. The significance of the planned comparisons is indicated with asterisks (*p<0.05, **p<0.01, ***p<0.001, ****p<0.0001).
(§2) MnTBAP is commercially available: it is for example manufactured by Sigma-Aldrich, Calbiochem, etc. For use it is dissolved following the guidance provided by the manufacturer.
Brains were collected for cell dissociation and Cdllb-positive cell separation using a magnetic coupled antibody (MACS® Technology), according to the manufacturer's protocol (Miltenyi Biotec, Bergisch Gladbach, Germany) and as previously described (Schang et al., 2014). In brief, mice were intracardially perfused with NaCl 0,9%. The brains are then dissociated using the Neural Tissue Dissociation Kit containing trypsin and the gentleMACS Octo Dissociator with Heaters. From the resulting brain homogenate, cd11 b-positive cells were enriched using the anti-cd11 b MicroBeads. After elution the isolated cells were centrifuged for 5 min at 200G and conserved at −80° C.
Total RNA was isolated from cells using the RNAeasy Micro kit (Qiagen), and reverse-transcribed using Superscript® III Reverse transcriptase (Invitrogen). Real-time quantitative PCR was performed in duplicate for each sample using Power Sybr Green PCR Master Mix (Applied Biosystems) and the rate of dye incorporation was monitored using the StepOne™ Plus RealTime PCR system (Applied Biosystems). Data were analyzed by StepOne Plus RT PCR software v2.1 and Microsoft excel. Amplification specificity was assessed with a melting curve analysis. TBP transcript levels were used for normalisation of each target (=ΔCT). Real-time PCR CT values were analyzed using the 2^−(ΔCt) method to calculate the fold expression (Schmittgen et al., 2008). The data are presented as relative mRNA units with respect to control group (expressed as fold over control value). Primer sequences available upon request.
Microglial cells and brain samples were resuspended in lysis buffer (50 mM TrisHCI pH 7.5, 150 mM NaCl, 1% Triton X-100, 0.1% SDS, 1 mM EDTA, and protease inhibitor mixture), mechanically homogenized with a piston, briefly vortexed and incubated for 30 min at 4° C. Lysed samples were briefly centrifuged to remove debris, and the whole supernatant extract was collected. Aliquots of the supernatant were immediately used for the assessment of ROS level, RNS level, dual ROS/RNS level, SOD activity, and Acetyl-Coa level. The protein content was determined with the Bradford reagent (Sigma-Aldrich).
Both ROS and RNS were measured by incubating CellROX (Life Technologies) with 30 μg of freshly extracted total proteins for 45 min at 37° C. in the dark in 96-wells plate in triplicate. Fluorescence intensity was measured using near-infra-red fluorescence setting with the plate reader Odyssey Infrared Imaging system scanner and Odyssey application software v3.0 (LI-COR Biosciences, Lincoln, NE).
SOD activity was measured with Superoxide Dismutase Activity Colorimetric Assay kit (Abcam, ab65354), following the manufacturer's instructions. […]

[2] = tested on: control and CLP mice; assay: Novel Object Location test (NOL); settings: F(1,29)=0.0007, p=0.98; day 20
Method: as §1, §2
(§3) Twice a week after the CLP, survival mice were gently handled for at least four 5-min sessions to habituate to the experimenter. Then, 20 and 21 days after CLP, mice were submitted to the novel object location (NOL) and novel object recognition (NOR) tests. […]
(§4) The familiarization sessions consisted on 10 min of free exploration of two identical objects, placed inside the same open field arena that the mice had visited on the previous day. […] Then, the percentage of exploration of the new object was calculated, reflecting the retention of the familiar object memory at long-term (24 h). […]

[3] = tested on: control and CLP mice; assay: Novel Object Recognition test (NOR); settings: septic (CLP) mice, systemic MnTBAP treatment
Method: as §1, §2, §3, §4

[4] = CLP mice + MnTBAP compared to CLP-placebo mice, 21 days
[5] = CLP mice + MnTBAP vs CLP-placebo, 21 days after sepsis, remained different from Control-Placebo
[6] = MnTBAP in control mice vs Control-placebo mice
[7] = MnTBAP in control mice vs Control-placebo mice, p<0.0001
[8] = MnTBAP in control mice vs Control-placebo mice, p=0.0003

For `O=C(O)c1ccc(/C2=C3\C=CC(=N3)/C(c3ccc(C(=O)O)cc3)=c3/cc/c4[n]3[Mn]([Cl])[n]3c2ccc3/C(c2ccc(C(=O)O)cc2)=C2/C=CC(=N2)\C=4c2ccc(C(=O)O)cc2)cc1` [MnTBAP, Manganese (III) tetrakis (4-benzoic acid)porphyrin chloride], the “microglial OXPHOS/glycolysis ATP balance” value [1, 4] was “strong microglial metabolic shift from mitochondrial OXPHOS to glycolysis”, the “microglial PGC1 alpha expression” value [1, 4] was “increase” and the “microglial mtDNA content” value [1, 4] was “strong mtDNA content increase”. For the same compound, the “microglial mtRNA 16S expression” value [1, 4] was “strong increase”, the “microglial mtRNA CytB expression” value [1, 4] was “strong increase” and the “microglial NRF2 transcript expression” value [1, 5] was “significantly increasing”. For the same compound, the “microglial ROS/RNS levels” value [1, 5] was “significantly increasing”, the “microglial SOD1 transcript expression” value [1, 5] was “significantly increasing” and the “microglial SOD2 transcript expression” value [1, 5] was “significantly increasing”. For the same compound, the “microglial SOD activity” value [1, 5] was “significantly increasing”, the “microglial catalase transcript expression” value [1, 5] was “significantly increasing” and the “sepsis-induced microglial reprogramming and alterations” value ([1]; CLP mice, 21 days after sepsis) was “successfully reversed”. The “microglial bioenergetic metabolite acetyl-CoA level” value ([1]; CLP mice, systemic MnTBAP treatment, FIG. 8) was “reduction”, the “microglial ATP generation” value [1, 6] was “did not affect” and the “microglial SOD activity” value [1, 6] was “did not affect”. The microglial glycolysis contribution [1, 6] was “did not affect”, the “microglial mtDNA content” value ([1]; MnTBAP in control mice vs Control-placebo mice, 0.01) was “reduced” and the “microglial NRF2 expression” value [1, 7] was “slightly reduced”. The “microglial SOD1 expression” value [1, 7] was “slightly reduced”, the “microglial mtRNA 16S level” value [1, 7] was “reduced” and the “microglial mtRNA CytB level” value [1, 7] was “reduced”. The “microglial PGC1 alpha expression” value [1, 8] was “reduced”, the “microglial SOD2 expression” value [1, 8] was “slightly reduced” and the microglial catalase expression ([1]; MnTBAP in control mice vs Control-placebo mice, p=0.0036) was “slightly reduced”. The “microglial ROS/RNS levels” value ([1]; MnTBAP in control mice vs Control-placebo mice, p=0.005) was “slightly reduced”, the “NOL exploration time, CLP vs control×MnTBAP vs placebo interaction” value [2] was “no significant CLP vs control×MnTBAP vs placebo interaction” and the “cognition / long-term cognitive function” value [3] was “restored cognition; also recorded: successfully restores long-term cognitive function”.
